Measurements published in PMC7195606 (Pharmacology, biochemistry, and behavior, 2020).

Key:
C57Bl/6J mice [1] = assay: Lethality; assay type: in vivo; settings: 2 hr observation; for lethal effects: 20-160 mg/kg IP (MDPV up to 140 mg/kg)
C57Bl/6J mice [2] = assay: Rectal; assay type: in vivo; settings: for maximal decrease in temperature, females / maximal decrease in temperature, males / effect on body temperature, females / effect on body temperature, males / effect on body temperature: single IP injection; for effect on body temperature, females / effect on body temperature, males / effect on body temperature: ambient 22-23 °C; for effect on body temperature: males and females
[3] = lower doses (<10 mg/kg IP); ref not given; cited from earlier work
C57Bl/6J mice [4] = assay: Organ weights normalized to body weight; assay type: in vivo; settings: 20-160 mg/kg IP, normalized according to body weight
C57Bl/6J mice [5] = assay: Histological analysis of organs by hematoxylin-eosin staining; assay type: in vivo; settings: at lethal doses
[6] = ref Miner et al., 2017, cited from earlier work; for decrease in temperature after the first injection: first injection of a binge regimen
[7] = ref Piao et al., 2015; cited from earlier work

Compound	lethal effects (C57Bl/6J mice [1])	maximal decrease in temperature, females (C57Bl/6J mice [2]; females)	time post injection with significant hypothermia vs baseline (C57Bl/6J mice [2]; males, 20 mg/kg IP) [min]	time post injection with significant hypothermia vs baseline (C57Bl/6J mice [2]; males, 80 mg/kg IP)	maximal decrease in temperature, males (C57Bl/6J mice [2]; males)	effect on body temperature, females (C57Bl/6J mice [2]; females)	effect on body temperature, males (C57Bl/6J mice [2]; males)	normalized heart weight (C57Bl/6J mice [4])	normalized liver weight (C57Bl/6J mice [4])	liver histology (hematoxylin-eosin) (C57Bl/6J mice [5])	further results
C[C@H](N)C(=O)c1ccccc1 [CAT, cathinone]	no lethal effects at any dose	≈ 7 °C	20	20 min	≈ 5 °C						time post injection with significant hypothermia vs baseline (C57Bl/6J mice [2]; females, 40 mg/kg IP): lasted the entire duration of the experiment; time post injection with significant hypothermia vs baseline (C57Bl/6J mice [2]; males, 40 mg/kg IP): 20 min; hyperthermia [3]: ≈ 1 °C
CN[C@@H](C)Cc1ccccc1 [MA, methamphetamine]						no significant differences in temperature post-injection	increased body temperature	increased normalized heart weight in a dose dependent manner	significantly increased normalized liver weight	minor changes in cell morphology in the liver	timepoint of return of temperature to baseline (C57Bl/6J mice [2]; males, 40 mg/kg IP): ≤ 100 min
CNC(C)C(=O)c1ccccc1 (stereo not shown) [MCAT, methcathinone]	this occurred at the highest dose and only in one subject	≈ 7 °C	20	failed to show significance	≈ 3 °C						time of peak hypothermic effect after injection (C57Bl/6J mice [2]; both males and females): 60 min; effect on body temperature (C57Bl/6J mice [2]): pronounced hypothermic effects; time post injection with significant hypothermia vs baseline (C57Bl/6J mice [2]; males, 120 mg/kg IP): did not identify an significant effects; time post injection with significant hypothermia vs baseline (C57Bl/6J mice [2]; males, 160 mg/kg IP): 60 min; hyperthermia [3]: ≈ 1 °C
CNC(C)Cc1ccc2c(c1)OCO2 (stereo not shown) [MDMA, 3,4-methylenedioxymethamphetamine]						hypothermic effects	not significant at any dose	increased normalized heart weight in a dose dependent manner	did not significantly affect liver weight	minor changes in cell morphology in the liver	LD50 as base (C57Bl/6J mice [1]; single IP injection, males and females pooled): 100.92 mg/kg; decrease in temperature after the first injection [6]: 3 °C
CCCC(C(=O)c1ccc2c(c1)OCO2)N1CCCC1 (stereo not shown) [MDPV, methylenedioxypyrovalerone]	no lethal effects at any dose	≈ 2 °C		did not identify any significant differences	≈ 2 °C						time post injection with significant hypothermia vs baseline (C57Bl/6J mice [2]; females, 80 mg/kg IP): 20 min; time post injection with significant hypothermia vs baseline (C57Bl/6J mice [2]; females, 100 mg/kg IP): 20 min; time post injection with significant hypothermia vs baseline (C57Bl/6J mice [2]; females, 120 mg/kg IP): 20 min; effect on body temperature (C57Bl/6J mice [2]): significant hypothermic effects in both males and females; time post injection with significant hypothermia vs baseline (C57Bl/6J mice [2]; males, 140 mg/kg IP): 20 min; effects on temperature ([6]; 1 mg/kg IP): did not find effects
CNC(C)C(=O)c1ccc(C)cc1 (stereo not shown) [MMC, 4-methyl-methcathinone]		≈ 6 °C	20		≈ 4 °C	profound hypothermic effects	greatest temperature decreases in males compared to the five other drugs	increased normalized heart weight in a dose dependent manner	significantly increased normalized liver weight	minor changes in cell morphology in the liver	time post injection with significant hypothermia vs baseline (C57Bl/6J mice [2]; males, 120 mg/kg IP): 20 min
CNC(C)C(=O)c1ccc2c(c1)OCO2 (stereo not shown) [methylone]											decrease in temperature after the first injection [6]: 4 °C; LD50 compared with MA or MDMA [7]: slightly lower than that of MA or MDMA
